Publication PMC2118486 (The Journal of Experimental Medicine, 2007)

Tests used:
[1] = system: purified peritoneal mast cells (Mc-cpa); format: in vitro ADME, mouse; settings: Mc-cpaY356L,E378A mast cells, 2 μM ionomycin, 37°C, 60 min; reduced (DTT/IAA) sample; MALDI-TOF
[2] = mouse, 37°C, up to 60 min

Row | Substance | internal cleavage of S6b [1] | not cleaved [2]
1 | sarafotoxin 6b [S6b] | reaction products consistent with the masses of 1–13 and 1–14 fragments of S6b | –
2 | Cys-Ser-Cys-Ser-Ser-Leu-Met-Asp-Lys-Glu-Cys-Val-Tyr-Phe-Cys-His-Leu-Asp-Ile-Ile-Trp | – | ET-1 (1–21) was also maintained
